Test results from ChEMBL document CHEMBL3045768, “Potential anti-inflammatory activity and ulcerogenicity study of some novel pyrimido[4,5:4,5]pyrimido[1,6-a]azepine derivatives” (Med Chem Res, 2012).

These compounds were tested on Rattus norvegicus (assay: Anti-inflammatory activity inRattus norvegicus albino (rat) assessed as inhibition of carrageenan-induced paw edema at 20 umol/kg, ip administered 1 hr before challenge measured after 1 hr). Conditions: not given.
Format: functional
Compound `O=C(O)CSCc1nc2c(c(=O)[nH]1)C1C(N3CCCC3)CCCCN1C(=O)N2c1ccccc1` (stereo not drawn) has an inhibition in vivo at 20 µmol/kg of 66.4%.
`O=C1N(c2ccccc2)c2ncn(CN3CCCC3)c(=O)c2C2C(N3CCCC3)CCCCN12` (stereo not drawn) was tested, and the inhibition in vivo at 20 µmol/kg was 16.2%.
`O=C([O-])Cc1ccccc1Nc1c(Cl)cccc1Cl.[Na+]` [DICLOFENAC SODIUM] was tested, and the inhibition in vivo at 20 µmol/kg was 68.6%.
With `N#CC1=C(NC(=O)c2ccccc2O)N(c2ccccc2)C(=O)N2CCCCC(N3CCCC3)C12` (stereo not drawn) the inhibition in vivo at 20 µmol/kg was 44.7%.
In the case of `Nc1ncnc2c1C1C(N3CCCC3)CCCCN1C(=O)N2c1ccccc1` (stereo not drawn), the inhibition in vivo at 20 µmol/kg is reported as 17.6%.
In the case of `O=C(Cc1ccccc1Nc1c(Cl)cccc1Cl)SCc1nc2c(c(=O)[nH]1)C1C(N3CCCC3)CCCCN1C(=O)N2c1ccccc1` (stereo not drawn), the inhibition in vivo at 20 µmol/kg is reported as 33.1%.
In the case of `O=C(SCc1nc2c(c(=O)[nH]1)C1C(N3CCCC3)CCCCN1C(=O)N2c1ccccc1)c1ccccc1O` (stereo not drawn), the inhibition in vivo at 20 µmol/kg is reported as 29.8%.
For `O=C1N(c2ccccc2)c2nc(CCN3CCOCC3)[nH]c(=O)c2C2C(N3CCCC3)CCCCN12` (stereo not drawn), the inhibition in vivo at 20 µmol/kg was 38.8%.
In the case of `O=C1N(c2ccccc2)c2ncnc(N3CCCCC3)c2C2C(N3CCCC3)CCCCN12` (stereo not drawn), the inhibition in vivo at 20 µmol/kg is reported as 10.3%.
`O=C1N(c2ccccc2)c2nc(CN3CCOCC3)[nH]c(=O)c2C2C(N3CCCC3)CCCCN12` (stereo not drawn) showed an inhibition in vivo at 20 µmol/kg of 51.9%.
For `O=C1N(c2ccccc2)c2ncnc(N3CCCC3)c2C2C(N3CCCC3)CCCCN12` (stereo not drawn), the inhibition in vivo at 20 µmol/kg was 9.5%.

These compounds were tested on Rattus norvegicus (assay: Anti-inflammatory activity inRattus norvegicus albino (rat) assessed as inhibition of carrageenan-induced paw edema at 20 umol/kg, ip administered 1 hr before challenge measured after 3 hr relative to diclofenac-sodium). Conditions: not given.
Format: functional
`O=C(O)CSCc1nc2c(c(=O)[nH]1)C1C(N3CCCC3)CCCCN1C(=O)N2c1ccccc1` (stereo not drawn) was tested, and the inhibition in vivo at 20 µmol/kg was 97.7%.
`O=C1N(c2ccccc2)c2ncn(CN3CCCC3)c(=O)c2C2C(N3CCCC3)CCCCN12` (stereo not drawn) was tested, and the inhibition in vivo at 20 µmol/kg was 37.2%.
`N#CC1=C(NC(=O)c2ccccc2O)N(c2ccccc2)C(=O)N2CCCCC(N3CCCC3)C12` (stereo not drawn) showed an inhibition in vivo at 20 µmol/kg of 74.7%.
Work on `Nc1ncnc2c1C1C(N3CCCC3)CCCCN1C(=O)N2c1ccccc1` (stereo not drawn) yielded an inhibition in vivo at 20 µmol/kg of 38.5%.
For `O=C(Cc1ccccc1Nc1c(Cl)cccc1Cl)SCc1nc2c(c(=O)[nH]1)C1C(N3CCCC3)CCCCN1C(=O)N2c1ccccc1` (stereo not drawn), the inhibition in vivo at 20 µmol/kg was 61.3%.
`O=C(SCc1nc2c(c(=O)[nH]1)C1C(N3CCCC3)CCCCN1C(=O)N2c1ccccc1)c1ccccc1O` (stereo not drawn) was tested, and the inhibition in vivo at 20 µmol/kg was 56.4%.
With `O=C1N(c2ccccc2)c2nc(CCN3CCOCC3)[nH]c(=O)c2C2C(N3CCCC3)CCCCN12` (stereo not drawn) the inhibition in vivo at 20 µmol/kg was 59.9%.
With `O=C1N(c2ccccc2)c2ncnc(N3CCCCC3)c2C2C(N3CCCC3)CCCCN12` (stereo not drawn) the inhibition in vivo at 20 µmol/kg was 31.9%.
`O=C1N(c2ccccc2)c2nc(CN3CCOCC3)[nH]c(=O)c2C2C(N3CCCC3)CCCCN12` (stereo not drawn) showed an inhibition in vivo at 20 µmol/kg of 71.2%.
In the case of `O=C1N(c2ccccc2)c2ncnc(N3CCCC3)c2C2C(N3CCCC3)CCCCN12` (stereo not drawn), the inhibition in vivo at 20 µmol/kg is reported as 31.1%.

The compounds below were run on Rattus norvegicus (assay: Anti-inflammatory activity inRattus norvegicus albino (rat) assessed as inhibition of carrageenan-induced paw edema at 20 umol/kg, ip administered 1 hr before challenge measured after 2 hr). Conditions: not given.
Format: functional
`O=C(O)CSCc1nc2c(c(=O)[nH]1)C1C(N3CCCC3)CCCCN1C(=O)N2c1ccccc1` (stereo not drawn) showed an inhibition in vivo at 20 µmol/kg of 73.2%.
For `O=C1N(c2ccccc2)c2ncn(CN3CCCC3)c(=O)c2C2C(N3CCCC3)CCCCN12` (stereo not drawn), the inhibition in vivo at 20 µmol/kg was 22.3%.
`O=C([O-])Cc1ccccc1Nc1c(Cl)cccc1Cl.[Na+]` [DICLOFENAC SODIUM] gave an inhibition in vivo at 20 µmol/kg of 83.5%.
`N#CC1=C(NC(=O)c2ccccc2O)N(c2ccccc2)C(=O)N2CCCCC(N3CCCC3)C12` (stereo not drawn) gave an inhibition in vivo at 20 µmol/kg of 53.8%.
For `Nc1ncnc2c1C1C(N3CCCC3)CCCCN1C(=O)N2c1ccccc1` (stereo not drawn), the inhibition in vivo at 20 µmol/kg was 22.8%.
`O=C(Cc1ccccc1Nc1c(Cl)cccc1Cl)SCc1nc2c(c(=O)[nH]1)C1C(N3CCCC3)CCCCN1C(=O)N2c1ccccc1` (stereo not drawn) was tested, and the inhibition in vivo at 20 µmol/kg was 45.8%.
With `O=C(SCc1nc2c(c(=O)[nH]1)C1C(N3CCCC3)CCCCN1C(=O)N2c1ccccc1)c1ccccc1O` (stereo not drawn) the inhibition in vivo at 20 µmol/kg was 36.9%.
In the case of `O=C1N(c2ccccc2)c2nc(CCN3CCOCC3)[nH]c(=O)c2C2C(N3CCCC3)CCCCN12` (stereo not drawn), the inhibition in vivo at 20 µmol/kg is reported as 52.2%.
`O=C1N(c2ccccc2)c2ncnc(N3CCCCC3)c2C2C(N3CCCC3)CCCCN12` (stereo not drawn) showed an inhibition in vivo at 20 µmol/kg of 17.4%.
`O=C1N(c2ccccc2)c2nc(CN3CCOCC3)[nH]c(=O)c2C2C(N3CCCC3)CCCCN12` (stereo not drawn) gave an inhibition in vivo at 20 µmol/kg of 57.5%.
Compound `O=C1N(c2ccccc2)c2ncnc(N3CCCC3)c2C2C(N3CCCC3)CCCCN12` (stereo not drawn) has an inhibition in vivo at 20 µmol/kg of 14.8%.

The compounds below were run on Rattus norvegicus (assay: Anti-inflammatory activity inRattus norvegicus albino (rat) assessed as inhibition of carrageenan-induced paw edema at 18 umol/kg, ip administered 1 hr before challenge measured after 3 hr). Conditions: not given.
Format: functional
`O=C(O)CSCc1nc2c(c(=O)[nH]1)C1C(N3CCCC3)CCCCN1C(=O)N2c1ccccc1` (stereo not drawn) gave an inhibition in vivo at 18 µmol/kg of 69.3%.
In the case of `O=C([O-])Cc1ccccc1Nc1c(Cl)cccc1Cl.[Na+]` [DICLOFENAC SODIUM], the inhibition in vivo at 18 µmol/kg is reported as 79.3%.

Each compound was assayed on Rattus norvegicus (assay: Toxicity inRattus norvegicus albino (rat) assessed as ulcerogenicity at 20 umol/kg, po qd for 3 days). Conditions: in vivo, 72 h.
Format: organism-based
Compound `O=C(O)CSCc1nc2c(c(=O)[nH]1)C1C(N3CCCC3)CCCCN1C(=O)N2c1ccccc1` (stereo not drawn) has a UI of 2.7.
With `O=C([O-])Cc1ccccc1Nc1c(Cl)cccc1Cl.[Na+]` [DICLOFENAC SODIUM] the UI was 9.
With `N#CC1=C(NC(=O)c2ccccc2O)N(c2ccccc2)C(=O)N2CCCCC(N3CCCC3)C12` (stereo not drawn) the UI was 3.4.
With `O=C(Cc1ccccc1Nc1c(Cl)cccc1Cl)SCc1nc2c(c(=O)[nH]1)C1C(N3CCCC3)CCCCN1C(=O)N2c1ccccc1` (stereo not drawn) the UI was 2.6.
With `O=C(SCc1nc2c(c(=O)[nH]1)C1C(N3CCCC3)CCCCN1C(=O)N2c1ccccc1)c1ccccc1O` (stereo not drawn) the UI was 3.4.
Compound `O=C1N(c2ccccc2)c2nc(CCN3CCOCC3)[nH]c(=O)c2C2C(N3CCCC3)CCCCN12` (stereo not drawn) has a UI of 3.4.
`O=C1N(c2ccccc2)c2nc(CN3CCOCC3)[nH]c(=O)c2C2C(N3CCCC3)CCCCN12` (stereo not drawn) was tested, and the UI was 4.3.

What follows are compounds tested on Rattus norvegicus (assay: Anti-inflammatory activity inRattus norvegicus albino (rat) assessed as inhibition of carrageenan-induced paw edema at 20 umol/kg, ip administered 1 hr before challenge measured after 3 hr). Conditions: not given.
Format: functional
`O=C(O)CSCc1nc2c(c(=O)[nH]1)C1C(N3CCCC3)CCCCN1C(=O)N2c1ccccc1` (stereo not drawn) gave an inhibition in vivo at 20 µmol/kg of 85.6%.
With `O=C1N(c2ccccc2)c2ncn(CN3CCCC3)c(=O)c2C2C(N3CCCC3)CCCCN12` (stereo not drawn) the inhibition in vivo at 20 µmol/kg was 32.6%.
For `O=C([O-])Cc1ccccc1Nc1c(Cl)cccc1Cl.[Na+]` [DICLOFENAC SODIUM], the inhibition in vivo at 20 µmol/kg was 87.6%.
`N#CC1=C(NC(=O)c2ccccc2O)N(c2ccccc2)C(=O)N2CCCCC(N3CCCC3)C12` (stereo not drawn) gave an inhibition in vivo at 20 µmol/kg of 65.4%.
Work on `Nc1ncnc2c1C1C(N3CCCC3)CCCCN1C(=O)N2c1ccccc1` (stereo not drawn) yielded an inhibition in vivo at 20 µmol/kg of 33.7%.
`O=C(Cc1ccccc1Nc1c(Cl)cccc1Cl)SCc1nc2c(c(=O)[nH]1)C1C(N3CCCC3)CCCCN1C(=O)N2c1ccccc1` (stereo not drawn) gave an inhibition in vivo at 20 µmol/kg of 53.1%.
`O=C(SCc1nc2c(c(=O)[nH]1)C1C(N3CCCC3)CCCCN1C(=O)N2c1ccccc1)c1ccccc1O` (stereo not drawn) gave an inhibition in vivo at 20 µmol/kg of 49.7%.
In the case of `O=C1N(c2ccccc2)c2nc(CCN3CCOCC3)[nH]c(=O)c2C2C(N3CCCC3)CCCCN12` (stereo not drawn), the inhibition in vivo at 20 µmol/kg is reported as 52.5%.
`O=C1N(c2ccccc2)c2ncnc(N3CCCCC3)c2C2C(N3CCCC3)CCCCN12` (stereo not drawn) showed an inhibition in vivo at 20 µmol/kg of 27.9%.
`O=C1N(c2ccccc2)c2nc(CN3CCOCC3)[nH]c(=O)c2C2C(N3CCCC3)CCCCN12` (stereo not drawn) gave an inhibition in vivo at 20 µmol/kg of 62.4%.
`O=C1N(c2ccccc2)c2ncnc(N3CCCC3)c2C2C(N3CCCC3)CCCCN12` (stereo not drawn) showed an inhibition in vivo at 20 µmol/kg of 27.3%.

These compounds were tested on Rattus norvegicus (assay: Anti-inflammatory activity in ip dosedRattus norvegicus albino (rat) assessed as inhibition of carrageenan-induced paw edema administered 1 hr before challenge measured after 3 hr). Conditions: not given.
Format: functional, organism-based
With `O=C(O)CSCc1nc2c(c(=O)[nH]1)C1C(N3CCCC3)CCCCN1C(=O)N2c1ccccc1` (stereo not drawn) the IC50 was 11.73 µmol/kg.
Compound `O=C([O-])Cc1ccccc1Nc1c(Cl)cccc1Cl.[Na+]` [DICLOFENAC SODIUM] has an IC50 of 7.26 µmol/kg.

The compounds below were run on Rattus norvegicus (assay: Anti-inflammatory activity inRattus norvegicus albino (rat) assessed as inhibition of carrageenan-induced paw edema at 24 umol/kg, ip administered 1 hr before challenge measured after 3 hr). Conditions: not given.
Format: functional
Compound `O=C(O)CSCc1nc2c(c(=O)[nH]1)C1C(N3CCCC3)CCCCN1C(=O)N2c1ccccc1` (stereo not drawn) has an inhibition in vivo at 24 µmol/kg of 89.6%.
In the case of `O=C([O-])Cc1ccccc1Nc1c(Cl)cccc1Cl.[Na+]` [DICLOFENAC SODIUM], the inhibition in vivo at 24 µmol/kg is reported as 88.2%.

What follows are compounds tested on Rattus norvegicus (assay: Anti-inflammatory activity inRattus norvegicus albino (rat) assessed as inhibition of carrageenan-induced paw edema at 12 umol/kg, ip administered 1 hr before challenge measured after 3 hr). Conditions: not given.
Format: functional
For `O=C(O)CSCc1nc2c(c(=O)[nH]1)C1C(N3CCCC3)CCCCN1C(=O)N2c1ccccc1` (stereo not drawn), the inhibition in vivo at 12 µmol/kg was 51.2%.
For `O=C([O-])Cc1ccccc1Nc1c(Cl)cccc1Cl.[Na+]` [DICLOFENAC SODIUM], the inhibition in vivo at 12 µmol/kg was 59.5%.
